# According to patent EP2526935A1, “Hydrazidomycins” (Oncotest GmbH, priority 2011, dated 2012):
# pIC50: −log10 of the molar value.
# Key:
# Format in all cases: cell-based
# [1] = tested on: Pseudomonas aeruginosa; test: antimicrobial activity test; conditions: at a concentration of 1.0 mg/mL
# [2] = tested on: Staphylococcus aureus; test: antimicrobial activity test; conditions: at a concentration of 1.0 mg/mL
# [3] = tested on: Mycobacerium vaccae; test: antimicrobial activity test; conditions: at a concentration of 1.0 mg/mL
# [4] = tested on: Bacillus subtilis; test: antimicrobial activity test; conditions: at a concentration of 1.0 mg/mL
# [5] = tested on: Enterococcus faecalis; test: antimicrobial activity test; conditions: at a concentration of 1.0 mg/mL
# [6] = tested on: Escherichia coli; test: antimicrobial activity test; conditions: at a concentration of 1.0 mg/mL
# [7] = tested on: panel of 12 human tumor cell lines; test: modified propidium iodide cytotoxicity assay, panel of 12 human tumor cell lines; conditions: for pIC50: geometric mean over panel of 12 human tumor cell lines, read-out: Cytotoxic potency (geometric mean IC50)
# Description: (§1) Antiproliferative and cytotoxic assays. A modified propidium iodide assay was used to determine the cytotoxic activity of compounds hydrazidomycin A, B, and C against 12 to 42 cell lines derived from solid human tumors. The test procedure has been as is known in the art. Cell lines tested were derived from patient tumors engrafted as a subcutaneously growing tumor in NMRI nu/nu mice, or obtained from the American Type Culture Collection, Rockville, MD, USA, National Cancer Institute, Bethesda, MD, USA, or Deutsche Sammlung von Mikroorganismen und Zellkulturen, Braunschweig. The IC50 was determined by four parameter non-linear curve fit after plotting compound concentration versus fluorescence intensity, and is given as the concentration of test compound that gives a response (inhibition of cell growth) half way between the top and bottom plateau of the sigmoidal concentration-response curve (i.e. the inflection point of the curve).
# [8] = tested on: panel of 42 human tumor cell lines; test: modified propidium iodide cytotoxicity assay, panel of 42 human tumor cell lines; conditions: for pIC50: mean over panel of 42 tumor cell lines, 15 histotypes; for IC50 values in sensitive cell lines, fold lower than the mean IC50 of all cell lines tested: on average, sensitive cell lines versus all cell lines
# Description: as §1
# [9] = tested on: Saos-2; test: modified propidium iodide cytotoxicity assay; conditions: Homo sapiens, Sarcoma
# Description: as §1
# [10] = tested on: PXF 1752L; test: modified propidium iodide cytotoxicity assay; conditions: Homo sapiens, Mesothelioma
# Description: as §1
# [11] = tested on: TE671; test: modified propidium iodide cytotoxicity assay; conditions: Homo sapiens, TE-671, Sarcoma
# Description: as §1
# [12] = tested on: HT-29; test: modified propidium iodide cytotoxicity assay; conditions: Homo sapiens, Colon
# Description: as §1
# [13] = tested on: LXFL1121L; test: modified propidium iodide cytotoxicity assay; conditions: Homo sapiens, LXFL 1121L, Lung, non-small cell
# Description: as §1
# [14] = tested on: PXF 698L; test: modified propidium iodide cytotoxicity assay; conditions: Homo sapiens, Mesothelioma
# Description: as §1
# [15] = tested on: OVXF 899L; test: modified propidium iodide cytotoxicity assay; conditions: Homo sapiens, Ovary
# Description: as §1
# [16] = tested on: LXFA 289L; test: modified propidium iodide cytotoxicity assay; conditions: Homo sapiens, Lung, non-small cell
# Description: as §1
# [17] = tested on: PC-3M; test: modified propidium iodide cytotoxicity assay; conditions: Homo sapiens, Prostate
# Description: as §1
# [18] = tested on: PXF 1118L; test: modified propidium iodide cytotoxicity assay; conditions: Homo sapiens, Mesothelioma
# Description: as §1
# [19] = tested on: PAXF 546L; test: modified propidium iodide cytotoxicity assay; conditions: Homo sapiens, Pancreas
# Description: as §1
# [20] = tested on: RXF 486L; test: modified propidium iodide cytotoxicity assay; conditions: Homo sapiens, Kidney
# Description: as §1
# [21] = tested on: NCI-H460; test: modified propidium iodide cytotoxicity assay; conditions: Homo sapiens, Lung, non-small cell
# Description: as §1
# [22] = tested on: RKO; test: modified propidium iodide cytotoxicity assay; conditions: Homo sapiens, Colon
# Description: as §1
# [23] = tested on: MCF-7; test: modified propidium iodide cytotoxicity assay; conditions: Homo sapiens, MCF7, Breast
# Description: as §1
# [24] = tested on: CAL-27; test: modified propidium iodide cytotoxicity assay; conditions: Homo sapiens, Head and neck
# Description: as §1
# [25] = tested on: LXFA 629L; test: modified propidium iodide cytotoxicity assay; conditions: Homo sapiens, Lung, non-small cell
# Description: as §1
# [26] = tested on: UXF 1138L; test: modified propidium iodide cytotoxicity assay; conditions: Homo sapiens, Uterus
# Description: as §1
# [27] = tested on: MEXF 462NL; test: modified propidium iodide cytotoxicity assay; conditions: Homo sapiens, Melanoma
# Description: as §1
# [28] = tested on: LXFA 526L; test: modified propidium iodide cytotoxicity assay; conditions: Homo sapiens, Lung, non-small cell
# Description: as §1
# [29] = tested on: RXF 1781L; test: modified propidium iodide cytotoxicity assay; conditions: Homo sapiens, Kidney
# Description: as §1
# [30] = tested on: LIXF 575L; test: modified propidium iodide cytotoxicity assay; conditions: Homo sapiens, Liver
# Description: as §1
# [31] = tested on: 22Rv1; test: modified propidium iodide cytotoxicity assay; conditions: Homo sapiens, Prostate
# Description: as §1
# [32] = tested on: DIFI; test: modified propidium iodide cytotoxicity assay; conditions: Homo sapiens, Colon
# Description: as §1
# [33] = tested on: CXF 269L; test: modified propidium iodide cytotoxicity assay; conditions: Homo sapiens, Colon
# Description: as §1
# [34] = tested on: GXF 251L; test: modified propidium iodide cytotoxicity assay; conditions: Homo sapiens, Stomach
# Description: as §1
# [35] = tested on: BXF 1352L; test: modified propidium iodide cytotoxicity assay; conditions: Homo sapiens, Bladder
# Description: as §1
# [36] = tested on: RXF 393NL; test: modified propidium iodide cytotoxicity assay; conditions: Homo sapiens, Kidney
# Description: as §1
# [37] = tested on: DU-145; test: modified propidium iodide cytotoxicity assay; conditions: Homo sapiens, Prostate
# Description: as §1
# [38] = tested on: MEXF 1341L; test: modified propidium iodide cytotoxicity assay; conditions: Homo sapiens, Melanoma
# Description: as §1
# [39] = tested on: LXFL 529L; test: modified propidium iodide cytotoxicity assay; conditions: Homo sapiens, Lung, non-small cell
# Description: as §1
# [40] = tested on: PANC-1; test: modified propidium iodide cytotoxicity assay; conditions: Homo sapiens, Pancreas
# Description: as §1
# [41] = tested on: MEXF 276L; test: modified propidium iodide cytotoxicity assay; conditions: Homo sapiens, MEXF276L, Melanoma
# Description: as §1
# [42] = tested on: PAXF 1657L; test: modified propidium iodide cytotoxicity assay; conditions: Homo sapiens, Pancreas
# Description: as §1
# [43] = tested on: MKN45; test: modified propidium iodide cytotoxicity assay; conditions: Homo sapiens, MKN-45, Stomach
# Description: as §1
# [44] = tested on: MDA-MB-231; test: modified propidium iodide cytotoxicity assay; conditions: Homo sapiens, Breast
# Description: as §1
# [45] = tested on: NIH:OVCAR-3; test: modified propidium iodide cytotoxicity assay; conditions: Homo sapiens, Ovary
# Description: as §1
# [46] = tested on: MAXF 401NL; test: modified propidium iodide cytotoxicity assay; conditions: Homo sapiens, Breast
# Description: as §1
# [47] = tested on: HCT-116; test: modified propidium iodide cytotoxicity assay; conditions: Homo sapiens, Colon
# Description: as §1
# [48] = tested on: LNCaP; test: modified propidium iodide cytotoxicity assay; conditions: Homo sapiens, Prostate
# Description: as §1
# [49] = tested on: BXF 1218L; test: modified propidium iodide cytotoxicity assay; conditions: Homo sapiens, Bladder
# Description: as §1
# [50] = tested on: T-24; test: modified propidium iodide cytotoxicity assay; conditions: Homo sapiens, Bladder
# Description: as §1
compound,measurement,setting,value
"CCCCC/C=C\C/C=C\CCCC/C=C\N(NC(=O)COC)C(=O)CCCCCCCCC [Hydrazidomycin C, hydrazidomycin C]",antimicrobial activity,[1],no antimicrobial activity
same,antimicrobial activity,[2],no antimicrobial activity
same,antimicrobial activity,[3],no antimicrobial activity
same,antimicrobial activity,[4],no antimicrobial activity
same,antimicrobial activity,[5],no antimicrobial activity
same,antimicrobial activity,[6],no antimicrobial activity
same,pIC50,[7],< 5.00
same,inhibition of tumor cell growth,[7]; up to a concentration of 10 µM,did not show inhibition of tumor cell growth
"CCCCCCCCCCCC/C=C\N(NC(=O)COC)C(=O)CCCCCCCCC [Hydrazidomycin A, hydrazidomycin A]",antimicrobial activity,[1],no antimicrobial activity
same,pIC50,[8]; Homo sapiens,6.07
same,pIC50,[8]; listed as (II),6.07
same,"IC50 values in sensitive cell lines, fold lower than the mean IC50 of all cell lines tested",[8],about 4 fold
same,antimicrobial activity,[2],no antimicrobial activity
same,antimicrobial activity,[3],no antimicrobial activity
same,antimicrobial activity,[4],no antimicrobial activity
same,antimicrobial activity,[5],no antimicrobial activity
same,pIC50,[9],5.74
same,pIC50,[10],5.92
same,pIC50,[11],6.05
same,pIC50,[12],6.33
same,pIC50,[13],5.64
same,pIC50,[14],6.01
same,pIC50,[15],5.87
same,pIC50,[16],5.96
same,pIC50,[17],6.98
same,pIC50,[18],5.62
same,pIC50,[19],6.18
same,pIC50,[20],5.79
same,pIC50,[21],5.64
same,pIC50,[22],6.22
same,pIC50,[23],6.11
same,pIC50,[24],6.15
same,pIC50,[25],6.61
same,pIC50,[26],6.05
same,pIC50,[27],6.12
same,pIC50,[28],5.78
same,pIC50,[29],6.01
same,pIC50,[30],6.46
same,pIC50,[31],6.05
same,pIC50,[32],6.11
same,pIC50,[33],6.65
same,pIC50,[34],6.84
same,pIC50,[35],5.64
same,pIC50,[36],5.95
same,pIC50,[37],6.27
same,pIC50,[38],6.03
same,pIC50,[39],5.67
same,pIC50,[40],6.03
same,pIC50,[41],5.80
same,pIC50,[42],5.72
same,pIC50,[43],6.17
same,pIC50,[44],6.54
same,pIC50,[45],5.96
same,pIC50,[46],6.33
same,pIC50,[47],6.12
same,pIC50,[48],6.02
same,pIC50,[49],5.61
same,antimicrobial activity,[6],no antimicrobial activity
same,pIC50,[7],6.43
"CCCCCCC/C=C\CCCCC/C=C\N(NC(=O)COC)C(=O)CCCCCCCCC [Hydrazidomycin B, hydrazidomycin B]",antimicrobial activity,[1],no antimicrobial activity
same,pIC50,[8]; Homo sapiens,4.97
same,"IC50 values in sensitive cell lines, fold lower than the mean IC50 of all cell lines tested",[8],~8 fold
same,antimicrobial activity,[2],no antimicrobial activity
same,antimicrobial activity,[3],no antimicrobial activity
same,antimicrobial activity,[4],no antimicrobial activity
same,antimicrobial activity,[5],no antimicrobial activity
same,pIC50,[9],4.74
same,pIC50,[10],4.90
same,pIC50,[11],4.74
same,pIC50,[12],5.18
same,pIC50,[13],4.76
same,pIC50,[14],4.84
same,pIC50,[15],4.72
same,pIC50,[16],4.90
same,pIC50,[17],5.76
same,pIC50,[18],4.52
same,pIC50,[19],4.97
same,pIC50,[50],5.04
same,pIC50,[20],4.67
same,pIC50,[21],4.76
same,pIC50,[22],4.86
same,pIC50,[23],4.96
same,pIC50,[24],4.90
same,pIC50,[25],5.85
same,pIC50,[26],4.74
same,pIC50,[27],4.69
same,pIC50,[28],5.15
same,pIC50,[29],4.99
same,pIC50,[30],5.13
same,pIC50,[31],4.81
same,pIC50,[32],4.99
same,pIC50,[33],5.23
same,pIC50,[34],5.81
same,pIC50,[35],4.82
same,pIC50,[36],4.96
same,pIC50,[37],5.14
same,pIC50,[38],4.83
same,pIC50,[39],4.76
same,pIC50,[40],5.00
same,pIC50,[41],4.74
same,pIC50,[42],4.69
same,pIC50,[43],4.94
same,pIC50,[44],5.26
same,pIC50,[45],4.73
same,pIC50,[46],6.06
same,pIC50,[47],4.71
same,pIC50,[48],4.85
same,pIC50,[49],4.71
same,antimicrobial activity,[6],no antimicrobial activity
same,pIC50,[7],5.22
